#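 Grown in 96-well plates, cells were treated for 48 hours with each compound at five concentrations. Insufficient inhibition: endpoint recorded as highest concentration tested. GI50 marks 50% less growth. TGI marks complete inhibition of growth.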
# How the values were obtained:
# Assay in all cases: growth of human tumour cells (NCI), 48 h
# [1] = tested on: MOLT-4 leukemia
# [2] = tested on: HCT-15 colon
# [3] = tested on: RPMI-8226 leukemia
# [4] = tested on: HOP-62 NSCLC
# [5] = tested on: ACHN renal
# [6] = tested on: LOX IMVI melanoma
# [7] = tested on: SK-OV-3 ovarian
# [8] = tested on: NCI-H226 lung
# [9] = tested on: IGROV1 ovarian
# [10] = tested on: HCC-2998 colon
Structure (SMILES),GI50 [1] [µM],TGI [1] [µM],GI50 [2] [µM],TGI [2] [µM],GI50 [3] [µM],TGI [3] [µM],GI50 [4] [µM],TGI [4] [µM],GI50 [5] [µM],TGI [5] [µM],GI50 [6] [µM],TGI [6] [µM],GI50 [7] [µM],TGI [7] [µM],GI50 [8] [µM],TGI [8] [µM],GI50 [9] [µM],TGI [9] [µM],GI50 [10] [µM],TGI [10] [µM]
COc1ccc2c(c1)C(=O)c1c-2n(CCCN2CCOCC2)c(=O)c2ccccc12,1.47,> 100,3.64,> 100,1.35,5.59,1.7,6.16,1.69,4.07,1.45,3.36,3.27,12.1,2.59,7.57,1.87,> 100,3.08,20.4
O=C1CC2C(=O)N(Cc3ccccc3)C1C(S(=O)(=O)c1ccccc1)C2S(=O)(=O)c1ccccc1 (centres undefined),–,7.72,–,2.91,–,18.4,–,36.9,–,3.24,–,3.32,–,31.5,–,27.8,–,36,–,20.7
COc1ccc(COCC(Cn2ccnc2)OCc2ccc(C(=O)O)cc2)cc1 (centres undefined),–,> 100,–,> 100,–,> 100,–,> 100,–,> 100,–,> 100,–,> 100,–,> 100,–,> 100,–,> 100
O=c1cccccc1NCCCCCCCCCNc1cccccc1=O,–,24.9,–,39.9,–,22.3,–,35.7,–,36.2,–,19.1,–,99.8,–,43.4,–,> 100,–,78.7
Cc1ccc2c(c1)ncn2-c1ncnc2c1CC(C)c1ccccc1N2C (centres undefined),0.0607,4.36,0.0984,12.5,0.149,1.82,0.174,13.6,0.383,12.1,0.124,13,0.139,17.7,1.21,18.7,0.256,7.68,0.304,14.5
CCSc1nc(COC(=O)NC)c(COC(=O)NC)n1C,–,> 100,–,> 100,–,> 100,–,> 100,–,35.5,–,> 100,–,> 95,–,> 100,–,> 93.1,–,> 100
CCOC(=O)N1C2C=C(C)C(C3C(C)C(=O)N31)N(C(=O)c1ccccc1)O2 (centres undefined),–,> 100,–,> 100,–,> 100,–,> 100,–,> 100,–,> 100,–,> 100,–,> 100,–,> 100,–,> 100
Nc1nc(Nc2cccc(F)c2)nc2ccccc12,14.6,> 100,18.4,47,23.1,71.1,17.1,38.5,20.4,76.8,15.5,29,35.3,> 100,35,> 100,38.7,> 100,18,37.3
Clc1ccc(CN2COc3c(cc(Cl)c4cccnc34)C2)cc1,–,5.02,–,13.5,–,3.42,–,3.35,–,8.74,–,2.97,–,13.3,–,8.67,–,8,–,12
CCc1c[nH]c2ncnc(N3CC[C@@](N)(CNC(=O)c4ccc(F)cc4F)C3)c12,18.7,> 81.2,43.6,> 100,28.6,> 100,30.5,> 100,23.8,> 100,31.1,> 100,32,> 100,22,> 100,20.1,> 94.9,50.7,> 100
Oc1cc(Cl)ccc1Oc1ccc(Cl)cc1Cl,3.74,11.3,3.31,10.9,2.02,5.7,2.27,5.16,3.47,11.3,1.87,3.86,2.97,7.86,2.32,6.82,4.73,17,2.57,6.61
Cn1cc(-c2ccc3c(c2)CCN3C(=O)Cc2cccc(C(F)(F)F)c2)c2c(N)ncnc21,3.55,18.6,1.77,16.1,3.84,27.7,8.17,29.2,0.871,13.2,3.12,16.3,1.26,8.14,3.85,19.1,3.47,30.5,13.1,28.4
CC(=O)OC1C2(CC3N4C(=O)C5(CO)SSC4(CC31O)C(=O)N5C)OC(C)C(C)(C)C2=O (centres undefined),< 0.0179,0.0622,< 0.01,< 0.0197,< 0.0398,–,0.575,1.08,< 0.01,0.0225,< 0.01,< 0.0121,0.0745,0.454,0.0142,0.0553,0.117,0.577,< 0.018,0.0538

# Source: PubChem BioAssay (NCI)
